Results: patent US11186566B2, “Modulator of cystic fibrosis transmembrane conductance regulator, pharmaceutical compositions, methods of treatment, and process for making the modulator” (Vertex Pharmaceuticals Incorporated, priority 2016, dated 2021)
Entries after “also recorded” stand apart in the source; their conditions may differ. Where two headings read alike, the source gives them in different places.

Columns and labels:
F508del-CFTR [1] = target: T1, F508del-CFTR (Homo sapiens (Human), UniProt P13569, DEL508-508); assay: Ussing chamber chloride transport experiments in HBE cells; format: cell-based; conditions: Ussing Chamber, F508del/F508del-HBE cells
Protocol: Ussing chamber experiments were performed on polarized airway epithelial cells expressing F508del to further characterize the F508del modulators identified in the optical assays. Non-CF and CF airway epithelia were isolated from bronchial tissue, cultured as previously described (Galietta, L. J. V., Lantero, S., Gazzolo, A., Sacco, O., Romano, L., Rossi, G. A., & Zegarra-Moran, O. (1998) In Vitro Cell. Dev. Biol. 34, 478-481), and plated onto Costar® Snapwell™ filters that were precoated with NIH3T3-conditioned media. After four days the apical media was removed and the cells were grown at an air liquid interface for >14 days prior to use. […] CF-HBE were isolated from patients homozygous for […] or compound heterozygous for F508del with an different disease causing mutation on the other allele.
HBE grown on Costar® Snapwell™ cell culture inserts were mounted in an Ussing chamber (Physiologic Instruments, Inc., San Diego, Calif.), and the transepithelial resistance and short-circuit current in the presence of a basolateral to apical Cl^− gradient (ISC) were measured using a voltage-clamp system (Department of Bioengineering, University of Iowa, Iowa). Briefly, HBE were examined under voltage-clamp recording conditions (Vhold=0 mV) at 37° C. The basolateral solution contained (in mM) 145 NaCl, 0.83 K2HPO4, 3.3 KH2PO4, 1.2 MgCl2, 1.2 CaCl2, 10 Glucose, 10 HEPES (pH adjusted to 7.35 with NaOH) and the apical solution contained (in mM) 145 NaGluconate, 1.2 MgCl2, 1.2 CaCl2, 10 glucose, 10 HEPES (pH adjusted to 7.35 with NaOH).
Typical protocol utilized a basolateral to apical membrane Cl^− concentration gradient. To set up this gradient, normal ringers was used on the basolateral membrane, whereas apical NaCl was replaced by equimolar sodium gluconate (titrated to pH 7.4 with NaOH) to give a large Cl^− concentration gradient across the epithelium. Modulators were added either to the basolateral side […] to assay or to the apical side during the assay. Forskolin (10 μM) was added to the apical side during the assay to stimulate CFTR-mediated Cl^− transport. […]

Rat IV and PO PK studies = format: in vivo, male Sprague-Dawley rats; conditions: male, Sprague-Dawley, plasma
human PXR = human PXR (Homo sapiens (Human), UniProt O75469); assay: PXR assay (PXR mediated CYP3A4 induction, DPX-2 cell line); format: cell-based; conditions: DPX-2 cells, 48 hours, 0.1 to 60 μM
Method in brief: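 HepG2-derived DPX-2 cells stably carrying human PXR and a CYP3A4 promoter–luciferase reporter, exposed 48 h to 11 doses (0.1–60 μM); rifampicin positive control. Viability by fluorescence, then luciferase luminescence; reports max fold induction over vehicle and EC50.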

F508del-CFTR [2] = target: T1, F508del-CFTR; assay: Membrane potential optical (fluorescent voltage sensing dye, FLIPR III) HTS assay for F508del-CFTR modulators; format: cell-based
Method in brief: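 NIH3T3 mouse fibroblasts stably expressing F508del-CFTR were seeded on matrigel-coated plates for 18–24 h at 37 °C. For correction assays they were cultured with or without compound for that period. Membrane potential was read on FLIPR III with voltage-sensing dyes, using a pH 7.4 NaCl/HEPES bath and a chloride-free gluconate substitute solution.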

[3] = Metabolism of Compound 1 in vitro and in vivo
Protocol: Compound 1 and the metabolites shown in the following table were prepared and tested.

F508del-CFTR [4] = target: T1, F508del-CFTR; assay: F508del-CFTR processing and trafficking in vitro (170 to 180 kDa band); format: cell-based; conditions: for increase in steady-state levels, fold of untreated levels: F508del/F508del-HBE cells, 16 to 24 hours
Text: The CFTR protein delivered to the cell surface by Compound 1 alone or in combination with Compound II (Compound I/Compound II) was potentiated by Compound III.

T1 sequence (P13569 other isoform, or with tags, fused parts or gaps del F508-F508): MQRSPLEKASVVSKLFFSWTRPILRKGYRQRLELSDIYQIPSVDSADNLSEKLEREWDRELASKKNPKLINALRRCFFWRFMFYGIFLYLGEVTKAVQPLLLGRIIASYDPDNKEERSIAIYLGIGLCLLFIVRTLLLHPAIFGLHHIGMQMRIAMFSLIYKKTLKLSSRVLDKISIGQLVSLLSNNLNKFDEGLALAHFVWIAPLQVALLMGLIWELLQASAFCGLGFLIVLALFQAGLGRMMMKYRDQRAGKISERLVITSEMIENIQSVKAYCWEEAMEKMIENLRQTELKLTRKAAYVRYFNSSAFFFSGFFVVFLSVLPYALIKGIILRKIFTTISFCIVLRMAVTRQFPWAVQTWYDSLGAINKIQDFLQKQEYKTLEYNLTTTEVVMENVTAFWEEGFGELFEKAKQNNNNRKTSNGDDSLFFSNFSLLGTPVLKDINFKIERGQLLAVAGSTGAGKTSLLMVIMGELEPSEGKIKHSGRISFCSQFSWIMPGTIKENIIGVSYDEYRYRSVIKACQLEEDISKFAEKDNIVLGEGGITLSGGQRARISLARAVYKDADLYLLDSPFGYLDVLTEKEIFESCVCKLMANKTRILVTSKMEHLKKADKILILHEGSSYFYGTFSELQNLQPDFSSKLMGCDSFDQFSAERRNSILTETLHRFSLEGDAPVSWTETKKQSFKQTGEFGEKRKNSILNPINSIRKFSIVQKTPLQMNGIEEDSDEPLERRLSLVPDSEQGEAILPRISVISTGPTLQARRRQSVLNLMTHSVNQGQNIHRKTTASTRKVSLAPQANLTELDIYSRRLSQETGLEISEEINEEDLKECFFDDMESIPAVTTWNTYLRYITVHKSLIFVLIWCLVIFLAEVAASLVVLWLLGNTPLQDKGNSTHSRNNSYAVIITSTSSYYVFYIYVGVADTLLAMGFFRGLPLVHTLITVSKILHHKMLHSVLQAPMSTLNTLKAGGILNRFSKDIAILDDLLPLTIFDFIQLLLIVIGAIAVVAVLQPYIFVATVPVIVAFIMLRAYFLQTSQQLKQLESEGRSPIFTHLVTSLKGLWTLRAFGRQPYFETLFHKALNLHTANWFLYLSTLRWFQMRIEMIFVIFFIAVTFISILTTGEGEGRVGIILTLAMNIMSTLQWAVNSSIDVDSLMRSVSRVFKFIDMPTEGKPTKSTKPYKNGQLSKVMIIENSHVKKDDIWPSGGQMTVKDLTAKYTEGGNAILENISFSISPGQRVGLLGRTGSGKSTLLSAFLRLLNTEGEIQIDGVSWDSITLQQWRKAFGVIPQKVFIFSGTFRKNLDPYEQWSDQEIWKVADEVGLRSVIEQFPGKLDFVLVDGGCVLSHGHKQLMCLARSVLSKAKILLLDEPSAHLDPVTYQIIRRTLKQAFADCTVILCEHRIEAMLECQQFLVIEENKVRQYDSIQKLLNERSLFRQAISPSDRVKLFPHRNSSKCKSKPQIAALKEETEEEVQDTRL
Sequence of human PXR (O75469 whole entry): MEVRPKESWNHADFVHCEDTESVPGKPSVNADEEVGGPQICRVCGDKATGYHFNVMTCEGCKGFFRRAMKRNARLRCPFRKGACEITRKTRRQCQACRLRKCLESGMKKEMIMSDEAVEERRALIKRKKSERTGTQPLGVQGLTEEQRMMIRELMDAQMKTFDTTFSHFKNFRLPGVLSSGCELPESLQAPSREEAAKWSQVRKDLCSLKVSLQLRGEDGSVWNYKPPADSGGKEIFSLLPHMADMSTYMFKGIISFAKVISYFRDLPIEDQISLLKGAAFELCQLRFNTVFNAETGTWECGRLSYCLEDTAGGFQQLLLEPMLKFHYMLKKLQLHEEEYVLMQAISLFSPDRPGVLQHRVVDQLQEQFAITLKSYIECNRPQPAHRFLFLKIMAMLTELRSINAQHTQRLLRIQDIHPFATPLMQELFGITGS

chloride transport (F508del-CFTR [1]): enhanced chloride transport | effect on chloride transport in relation to the effect of Compound II (F508del-CFTR [1]): additive to the effect of Compound II | bioavailability (Rat IV and PO PK studies; 3 mg/kg, oral, read-out: Rat po % F): 63% | clearance (Rat IV and PO PK studies; intravenous, 3.0 mg/kg, read-out: Rat iv CL): 1.6 mL/min/kg | AUC (Rat IV and PO PK studies; oral, 3 mg/kg): 21000 ng·h/mL | PXR Max Induction (% of rifampicin) (human PXR): 3 % of rifampicin | EC50 (F508del-CFTR [2]; F508del NIH 3T3 cells, assay 5A-A1, read-out: CFTRdF508 EC50): < 100 nM | EC50 (F508del-CFTR [2]; F508del NIH 3T3 cells, assay 5A-A1, read-out: EC50): < 3000 nM | Emax (F508del-CFTR [2]; NIH3T3, F508del NIH 3T3 cells, relative to Compound II, read-out: % Efficacy relative to Compound II): ≥ 100% | EC50 (F508del-CFTR [2]; Table 7, Compound 1 and metabolites, read-out: CFTRdF508 EC50): 30 nM | EC50 (F508del-CFTR [2]; Table 9, read-out: CFTR dF508 EC50): 30 nM | increase in steady-state levels, fold of untreated levels (F508del-CFTR [4]): 6.5 fold | increase in steady-state levels, fold of untreated levels (F508del-CFTR [4]; Compound 1 in combination with 3 μM Compound II): 18.7 fold
SMILES: C[C@@H]1CN(c2nc(-n3ccc(OCCC4(C(F)(F)F)CC4)n3)ccc2C(=O)NS(=O)(=O)c2ccccc2)C(C)(C)C1 [Compound 1, N-(benzenesulfonyl)-6-[3-[2-[1-(trifluoromethyl)cyclopropyl]ethoxy]pyrazol-1-yl]-2-[(4S)-2,2,4-trimethylpyrrolidin-1-yl]pyridine-3-carboxamide]
metabolism [3]: metabolized both in vitro and in vivo, mostly by oxidative metabolism | processing and trafficking of F508del-CFTR (F508del-CFTR [4]; in vitro): improved the processing and trafficking of F508del-CFTR; also recorded: facilitates the processing and trafficking of F508del-CFTR
